# Test results from patent publication US20240300932A1, “N-PHENYLIMINE DERIVATIVE AND PREPARATION METHOD AND USE THEREOF” (Guizhou University, priority 2023, published 2024).
# How the values were obtained:
# Experiment in all cases: Post-emergence herbicidal activity test (stem and leaf spray, pot culture)
# Format in all cases: in vivo
# Details in all cases: 3 weeks after spraying
# Portulaca oleracea = tested on: Portulaca oleracea
# Protocol: (§1) The weeds were cultivated in a 180 mm×140 mm plastic nutrient pot by a pot-culture method, placed in an enamel tray, and the plastic nutrient pots were filled with surface soil (⅘ of a depth) collected from a farmland and air-dried and sieved, and a soil humidity was controlled at 20% in the initial stage. Weed seeds with plump and uniform grains were selected, soaked in warm water at 25° C. for 6 h, and germinated in a biochemical incubator (dark) at 28° C. The freshly exposed weed seeds were evenly placed on the soil surface, and then covered with 0.5 cm to 1 cm of soil according to the size of the seeds. The weeds are cultivated in a controlled sunlight greenhouse at 20° C. to 30° C., under natural light, and a relative humidity of 57% to 72%. The soil was loam, including 1.63% of organic matters, with a pH value of 7, 84.3 mg/kg of alkaline nitrogen, 38.5 mg/kg of available phosphorus, and 82.1 mg/kg of available potassium.
# (§2) Each treatment was repeated 2 times, each treatment included 12 pots, and 20 weed seeds were sown in each pot. Pesticide was applied in the test for 1 time in total. When the weeds grew to 1.5- to 2-leaf stage, thinning was conducted, with 10 weeds in each pot, and 30 weeds were kept in each treatment.
# (§3) The cultivated weeds were placed on trays with an area of 0.1 m^2, and stems and leaves were sprayed with a sprayer. After applying a pesticide, the pesticide applied weeds were moved into a greenhouse for routine cultivation.
# (§4) 2 weeks after sowing, the test plants were treated at the 2- to 3-leaf stage: the compounds of the present disclosure for testing were dissolved in acetone separately, and added with Tween 80, an emulsifiable oil of 1.5 liters/ha methyl oleate was added as a synergist, and an obtained mixture was diluted with certain water to a certain concentration solution. The solution was sprayed onto the plants using a spray tower. After spraying, the weeds were cultivated in the greenhouse for 3 weeks, and the experimental effects on the weeds were counted. The effective concentrations of the compounds were 10 g/mu, 5 g/mu, and 2.5 g/mu, the experiment was repeated three times, and an average result was taken.
# (§5) The activity level criteria for plant destruction (i.e. growth control rate) are as follows: • Grade 5: the growth control rate is greater than or equal to 85%; • Grade 4: the growth control rate is greater than or equal to 60% and less than 85%; • Grade 3: the growth control rate is greater than or equal to 40% and less than 60%; • Grade 2: the growth control rate is greater than or equal to 20% and less than 40%; • Grade 1: the growth control rate is greater than or equal to 5% and less than 20%; and • Grade 0: the growth control rate is less than 5%.
# (§6) The growth control rate is a fresh weight control rate.
# Setaria viridis = tested on: Setaria viridis
# Protocol: as §1, §2, §3, §4, §5, §6
# Echinochloa crusgalli = tested on: Echinochloa crusgalli
# Protocol: as §1, §2, §3, §4, §5, §6
# Abutilon theophrasti = tested on: Abutilon theophrasti
# Protocol: as §1, §2, §3, §4, §5, §6
# Amaranthus retroflexus = tested on: Amaranthus retroflexus
# Protocol: as §1, §2, §3, §4, §5, §6
# Trifoliumre pensL. = tested on: Trifoliumre pensL.
# Protocol: (1) Post-Emergence Stem and Leaf Spray Treatment: The weeds were cultivated in a 180 mm×140 mm plastic nutrient pot by a pot-culture method, placed in an enamel tray, and the plastic nutrient pots were filled with surface soil (⅘ of a depth) collected from a farmland and air-dried and sieved, and a soil humidity was controlled at 20% in the initial stage. Weed seeds with plump and uniform grains were selected, soaked in warm water at 25° C. for 6 h, and germinated in a biochemical incubator (dark) at 28° C. The freshly exposed weed seeds were evenly placed on the soil surface, and then covered with 0.5 cm to 1 cm of soil according to the size of the seeds. The weeds are cultivated in a controlled sunlight greenhouse at 20° C. to 30° C., under natural light, and a relative humidity of 57% to 72%. The soil was loam, including 1.63% of organic matters, with a pH value of 7, 84.3 mg/kg of alkaline nitrogen, 38.5 mg/kg of available phosphorus, and 82.1 mg/kg of available potassium. Each treatment was repeated 2 times, each treatment included 12 pots, and 20 weed seeds were sown in each pot. Pesticide was applied in the test for 1 time in total. When the weeds grew to 1.5- to 2-leaf stage, thinning was conducted, with 10 weeds in each pot, and 30 weeds were kept in each treatment. The cultivated weeds were placed on trays with an area of 0.1 m^2, and stems and leaves were sprayed with a sprayer. After applying a pesticide, the pesticide applied weeds were moved into a greenhouse for routine cultivation. 2 weeks after sowing, the test plants were treated at the 2- to 3-leaf stage: the compounds of the present disclosure for testing were dissolved in acetone separately, and added with Tween 80, an emulsifiable oil of 1.5 liters/ha methyl oleate was added as a synergist, and an obtained mixture was diluted with certain water to a certain concentration solution. The solution was sprayed onto the plants using a spray tower. After spraying, the weeds were cultivated in the greenhouse for 3 weeks, and the experimental effects on the weeds were counted. The effective concentrations of the compounds were 10 g/mu, 5 g/mu, and 2.5 g/mu, the experiment was repeated three times, and an average result was taken.
Structure (SMILES),"Post-emergence herbicidal activity, P. oleracea (grade) (Portulaca oleracea; dosage 2.5 g/mu)","Post-emergence herbicidal activity, P. oleracea (grade) (Portulaca oleracea; dosage 5 g/mu)","Post-emergence herbicidal activity, P. oleracea (grade) (Portulaca oleracea; dosage 10 g/mu)","Post-emergence herbicidal activity, S. viridis (grade) (Setaria viridis; dosage 2.5 g/mu)","Post-emergence herbicidal activity, S. viridis (grade) (Setaria viridis; dosage 5 g/mu)","Post-emergence herbicidal activity, S. viridis (grade) (Setaria viridis; dosage 10 g/mu)","Post-emergence herbicidal activity, E. crusgalli (grade) (Echinochloa crusgalli; dosage 2.5 g/mu)","Post-emergence herbicidal activity, E. crusgalli (grade) (Echinochloa crusgalli; dosage 5 g/mu)","Post-emergence herbicidal activity, E. crusgalli (grade) (Echinochloa crusgalli; dosage 10 g/mu)","Post-emergence herbicidal activity, A. theophrasti (grade) (Abutilon theophrasti; dosage 2.5 g/mu)","Post-emergence herbicidal activity, A. theophrasti (grade) (Abutilon theophrasti; dosage 5 g/mu)","Post-emergence herbicidal activity, A. theophrasti (grade) (Abutilon theophrasti; dosage 10 g/mu)","Post-emergence herbicidal activity, A. retroflexus (grade) (Amaranthus retroflexus; dosage 2.5 g/mu)","Post-emergence herbicidal activity, A. retroflexus (grade) (Amaranthus retroflexus; dosage 5 g/mu)","Post-emergence herbicidal activity, A. retroflexus (grade) (Amaranthus retroflexus; dosage 10 g/mu)","Post-emergence herbicidal activity, Trifoliumre pensL. (grade) (Trifoliumre pensL.; dosage 2.5 g/mu)","Post-emergence herbicidal activity, Trifoliumre pensL. (grade) (Trifoliumre pensL.; dosage 5 g/mu)","Post-emergence herbicidal activity, Trifoliumre pensL. (grade) (Trifoliumre pensL.; dosage 10 g/mu)"
O=C1C2=C(CCCC2)C(=O)N1c1cc(OCc2nc(-c3ccc(Cl)cc3)no2)c(Cl)cc1F [Compound A5],5 (Grade 5: the growth control rate is greater than or equal to 85%),5 (Grade 5: the growth control rate is greater than or equal to 85%),5 (Grade 5: the growth control rate is greater than or equal to 85%),2 (Grade 2: the growth control rate is greater than or equal to 20% and less than 40%),3 (Grade 3: the growth control rate is greater than or equal to 40% and less than 60%),4 (Grade 4: the growth control rate is greater than or equal to 60% and less than 85%),1 (Grade 1: the growth control rate is greater than or equal to 5% and less than 20%),2 (Grade 2: the growth control rate is greater than or equal to 20% and less than 40%),3 (Grade 3: the growth control rate is greater than or equal to 40% and less than 60%),5 (Grade 5: the growth control rate is greater than or equal to 85%),5 (Grade 5: the growth control rate is greater than or equal to 85%),5 (Grade 5: the growth control rate is greater than or equal to 85%),5 (Grade 5: the growth control rate is greater than or equal to 85%),5 (Grade 5: the growth control rate is greater than or equal to 85%),5 (Grade 5: the growth control rate is greater than or equal to 85%),5 (Grade 5: the growth control rate is greater than or equal to 85%),5 (Grade 5: the growth control rate is greater than or equal to 85%),5 (Grade 5: the growth control rate is greater than or equal to 85%)
O=C1C2=C(CCCC2)C(=O)N1c1cc(OCc2nc(-c3ccc(F)cc3F)no2)c(Cl)cc1F [Compound A6],4 (Grade 4: the growth control rate is greater than or equal to 60% and less than 85%),5 (Grade 5: the growth control rate is greater than or equal to 85%),5 (Grade 5: the growth control rate is greater than or equal to 85%),2 (Grade 2: the growth control rate is greater than or equal to 20% and less than 40%),3 (Grade 3: the growth control rate is greater than or equal to 40% and less than 60%),4 (Grade 4: the growth control rate is greater than or equal to 60% and less than 85%),1 (Grade 1: the growth control rate is greater than or equal to 5% and less than 20%),2 (Grade 2: the growth control rate is greater than or equal to 20% and less than 40%),3 (Grade 3: the growth control rate is greater than or equal to 40% and less than 60%),5 (Grade 5: the growth control rate is greater than or equal to 85%),5 (Grade 5: the growth control rate is greater than or equal to 85%),5 (Grade 5: the growth control rate is greater than or equal to 85%),5 (Grade 5: the growth control rate is greater than or equal to 85%),5 (Grade 5: the growth control rate is greater than or equal to 85%),5 (Grade 5: the growth control rate is greater than or equal to 85%),4 (Grade 4: the growth control rate is greater than or equal to 60% and less than 85%),5 (Grade 5: the growth control rate is greater than or equal to 85%),5 (Grade 5: the growth control rate is greater than or equal to 85%)
O=C1C2=C(CCCC2)C(=O)N1c1cc(OCc2nc(-c3ccc(Cl)cc3F)no2)c(Cl)cc1F [Compound A7],4 (Grade 4: the growth control rate is greater than or equal to 60% and less than 85%),5 (Grade 5: the growth control rate is greater than or equal to 85%),5 (Grade 5: the growth control rate is greater than or equal to 85%),2 (Grade 2: the growth control rate is greater than or equal to 20% and less than 40%),3 (Grade 3: the growth control rate is greater than or equal to 40% and less than 60%),4 (Grade 4: the growth control rate is greater than or equal to 60% and less than 85%),1 (Grade 1: the growth control rate is greater than or equal to 5% and less than 20%),2 (Grade 2: the growth control rate is greater than or equal to 20% and less than 40%),3 (Grade 3: the growth control rate is greater than or equal to 40% and less than 60%),5 (Grade 5: the growth control rate is greater than or equal to 85%),5 (Grade 5: the growth control rate is greater than or equal to 85%),5 (Grade 5: the growth control rate is greater than or equal to 85%),5 (Grade 5: the growth control rate is greater than or equal to 85%),5 (Grade 5: the growth control rate is greater than or equal to 85%),5 (Grade 5: the growth control rate is greater than or equal to 85%),4 (Grade 4: the growth control rate is greater than or equal to 60% and less than 85%),5 (Grade 5: the growth control rate is greater than or equal to 85%),5 (Grade 5: the growth control rate is greater than or equal to 85%)
